Measurements: PMC7307906, “Macrocyclic Modalities Combining Peptide Epitopes and Natural Product Fragments” (Journal of the American Chemical Society, 2020)
Where a SMILES comes first, the peptide text is derived from it. Bridges are numbered along the chain shown (N, C = ends). Where no end group is shown, it is not given here. [ ]: non-standard residue; d: D form. pyrrolidinyl‑spirobarbiturate (VII) = not defined here; N‑phenyl fused di‑pyrrolidine (II) = not defined here; N‑methyl fused di‑pyrrolidine (I) = not defined here; ortho ether aromatic unit (VIII) = not defined here; phenylmethanamine linker (IX) = not defined here; NP‑inspired fragment III = not defined here; pyrrolidine (IV) = not defined here; NMeF = CN[C@@H](Cc1ccccc1)C(=O)O; NMeL = CN[C@@H](CC(C)C)C(=O)O; NMeV = CN[C@H](C(=O)O)C(C)C

Legend:
human MC1R [1] = biological target: T1, human MC1R (Homo sapiens, UniProt Q01726); test: Melanocortin receptor radioligand binding (SPA, [125I]-NDP-α-MSH displacement), MC1R; settings: competitive binding, mean (± SEM) of at least three independent experiments, read-out: IC50 hMC1R binding
T1 construct: expressed in transfected cells
T1 sequence (Q01726 whole entry): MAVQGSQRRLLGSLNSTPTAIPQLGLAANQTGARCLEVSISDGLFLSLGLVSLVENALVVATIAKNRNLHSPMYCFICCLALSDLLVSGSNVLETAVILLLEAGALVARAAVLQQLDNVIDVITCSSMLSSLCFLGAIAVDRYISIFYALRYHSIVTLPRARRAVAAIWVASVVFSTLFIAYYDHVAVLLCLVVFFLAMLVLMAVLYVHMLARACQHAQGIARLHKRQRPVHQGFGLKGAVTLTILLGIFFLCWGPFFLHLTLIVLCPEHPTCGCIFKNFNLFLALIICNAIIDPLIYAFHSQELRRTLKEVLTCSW

human MC3R [2] = biological target: T2, human MC3R (Homo sapiens, UniProt P41968); test: Melanocortin receptor radioligand binding (SPA, [125I]-NDP-α-MSH displacement), MC3R; settings: competitive binding, mean (± SEM) of at least three independent experiments, read-out: IC50 hMC3R binding
T2 construct: expressed in transfected cells
T2 sequence (P41968 whole entry): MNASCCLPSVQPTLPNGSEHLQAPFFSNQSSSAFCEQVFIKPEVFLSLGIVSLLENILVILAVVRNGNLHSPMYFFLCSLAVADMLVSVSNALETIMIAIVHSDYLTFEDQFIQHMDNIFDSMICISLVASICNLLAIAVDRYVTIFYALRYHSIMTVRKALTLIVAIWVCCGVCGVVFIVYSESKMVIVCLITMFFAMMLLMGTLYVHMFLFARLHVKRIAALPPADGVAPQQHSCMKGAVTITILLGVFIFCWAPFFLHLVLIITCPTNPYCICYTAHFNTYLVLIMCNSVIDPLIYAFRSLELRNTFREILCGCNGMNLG

human MC4R [3] = biological target: T3, human MC4R (Homo sapiens, UniProt P32245); test: Melanocortin receptor radioligand binding (SPA, [125I]-NDP-α-MSH displacement), MC4R; settings: competitive binding, mean (± SEM) of at least three independent experiments, read-out: IC50 hMC4R binding
T3 construct: expressed in transfected cells
T3 sequence (P32245 whole entry): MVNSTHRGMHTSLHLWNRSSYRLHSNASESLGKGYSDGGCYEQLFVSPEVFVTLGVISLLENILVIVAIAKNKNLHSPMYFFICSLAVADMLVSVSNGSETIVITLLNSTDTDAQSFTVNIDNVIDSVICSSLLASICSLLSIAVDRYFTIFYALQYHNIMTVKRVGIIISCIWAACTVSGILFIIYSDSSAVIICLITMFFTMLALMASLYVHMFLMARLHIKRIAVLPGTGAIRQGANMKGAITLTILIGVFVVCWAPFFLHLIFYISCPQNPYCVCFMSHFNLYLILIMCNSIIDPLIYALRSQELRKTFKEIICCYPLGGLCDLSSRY

human MC5R = biological target: T4, human MC5R (Homo sapiens, UniProt P33032); test: Melanocortin receptor radioligand binding (SPA, [125I]-NDP-α-MSH displacement), MC5R; settings: competitive binding, [125I]-NDP-α-MSH; mean (± SEM) of at least three independent experiments; read-out: IC50 hMC5R binding
T4 construct: expressed in transfected cells; host or cells: HEK293-6E suspension cells, transient expression; membranes
T4 sequence (P33032 whole entry): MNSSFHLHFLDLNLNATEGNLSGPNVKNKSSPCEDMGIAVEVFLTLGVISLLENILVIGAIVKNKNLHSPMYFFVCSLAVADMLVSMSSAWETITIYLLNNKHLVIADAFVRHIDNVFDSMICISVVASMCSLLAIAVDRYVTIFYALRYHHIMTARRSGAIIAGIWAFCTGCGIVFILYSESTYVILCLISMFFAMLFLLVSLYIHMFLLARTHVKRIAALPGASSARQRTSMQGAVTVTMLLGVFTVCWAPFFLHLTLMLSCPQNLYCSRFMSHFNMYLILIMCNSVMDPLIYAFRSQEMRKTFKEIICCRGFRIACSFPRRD

human MC1R [4] = biological target: T1, human MC1R; test: cAMP assay (LANCE) in T-Rex-293 cells expressing MC1R; type: cell-based; settings: for Emax: T-REx-293, read-out: % Effect hMC1R cAMP; for EC50: mean (± SEM) of at least three independent experiments, read-out: EC50 hMC1R cAMP
human MC3R [5] = biological target: T2, human MC3R; test: cAMP assay (LANCE) in T-Rex-293 cells expressing MC3R; type: cell-based; settings: cAMP assay; mean (± SEM) of at least three independent experiments; read-out: EC50 hMC3R cAMP
human MC4R [6] = biological target: T3, human MC4R; test: cAMP assay (LANCE) in T-Rex-293 cells expressing MC4R; type: cell-based; settings: cAMP assay; mean (± SEM) of at least three independent experiments; read-out: EC50 hMC4R cAMP
SPSB2 = biological target: T5, SPSB2 (Homo sapiens, UniProt Q99619); test: SPR
T5 chain: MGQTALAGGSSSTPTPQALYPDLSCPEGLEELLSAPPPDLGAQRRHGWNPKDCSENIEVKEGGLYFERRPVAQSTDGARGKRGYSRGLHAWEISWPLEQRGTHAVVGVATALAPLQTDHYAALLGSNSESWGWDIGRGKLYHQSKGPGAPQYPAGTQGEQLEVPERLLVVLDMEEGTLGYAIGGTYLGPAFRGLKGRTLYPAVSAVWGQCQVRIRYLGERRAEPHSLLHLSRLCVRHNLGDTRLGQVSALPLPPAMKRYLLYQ

CN1C(=O)[C@H]2N[C@@H](c3ccc(cc3)C(=O)NCCCC[C@@H](C(N)=O)NC(=O)[C@H](Cc3ccccc3)NC(=O)[C@H](Cc3ccccc3)NC(=O)[C@H](CCCNC(=N)N)NC(=O)[C@@H]1Cc1ccccc1)[C@H]1C(=O)N(c3ccccc3)C(=O)[C@H]12 [N3-major*, [II-FRFFK ]]
IC50 (human MC1R [1]): > 100000 nM
IC50 (human MC3R [2]): > 100000 nM
IC50 (human MC4R [3]): > 100000 nM
IC50 (human MC5R): 74000 ± 4000 nM
Emax (human MC1R [4]): 40%
EC50 (human MC1R [4]; cAMP assay): 22000 ± 3000 nM
EC50 (human MC3R [5]): > 100000 nM
EC50 (human MC4R [6]): > 100000 nM

CN1C(=O)[C@@H]2[C@H](C1=O)[C@H]1N[C@@H]2C(=O)N(C)[C@@H](Cc2ccccc2)C(=O)N[C@@H](CCCNC(=N)N)C(=O)N[C@H](Cc2ccccc2)C(=O)N[C@H](Cc2ccccc2)C(=O)N[C@H](C(=O)N[C@@H](Cc2ccc(O)cc2)C(N)=O)CCCCNC(=O)c2ccc1cc2 [O1-minor, [I-FRffK ]Y]
IC50 (human MC1R [1]): > 10000 nM
IC50 (human MC3R [2]): > 10000 nM
IC50 (human MC4R [3]): > 10000 nM
IC50 (human MC5R): > 10000 nM
% Effect hMC1R cAMP at 10 µM (human MC1R [4]; % effect at 10 µM, compounds not reaching an upper plateau (#)): 21%
EC50 (human MC1R [4]; cAMP assay): > 10000 nM
EC50 (human MC3R [5]): > 10000 nM
EC50 (human MC4R [6]): > 10000 nM

C[C@@H]1NC(=O)[C@H](CC(N)=O)NC(=O)[C@@H](Cc2ccccc2)NC(=O)[C@@H](Cc2ccccc2)NC(=O)[C@H](CCCNC(=N)N)NC(=O)[C@@H](NC(=O)[C@@H](N)Cc2ccc(O)cc2)CSSC[C@@H](C(=O)N[C@@H](Cc2ccc(O)cc2)C(N)=O)NC(=O)[C@H](Cc2ccccc2)NC1=O [compound 29, Y[CRffNAFC]Y, reference compound] (HELM PEPTIDE1{Y.C.R.[dF].[dF].N.A.F.C.Y.[am]}$PEPTIDE1,PEPTIDE1,2:R3-9:R3$$$V2.0)
IC50 (human MC1R [1]): 2500 ± 500 nM
IC50 (human MC3R [2]): 9500 ± 900 nM
IC50 (human MC4R [3]): 7100 ± 500 nM
IC50 (human MC5R): 2500 ± 300 nM
Emax (human MC1R [4]): 84%
agonistic activity at MC1R (in words) (human MC1R [4]; cAMP assay, hMC1R): selective and almost full agonistic activity
EC50 (human MC3R [5]): > 100000 nM
EC50 (human MC4R [6]): > 100000 nM

B1: PepNat D12-minor (peptide)
chain: [NMeL]DINNNKG-NH2
modifications: bridge (positions not given here) via N‑methyl fused di‑pyrrolidine (I); reading uncertain; also: macrocycle via N-methyl fused di-pyrrolidine (I), minor diastereomer
Kd (SPSB2): 127 nM

CVDINNNC (disulfide 1-8 (inferred)) [cyclic peptide 24]
Kd (SPSB2): 16 nM

B2: cyclic peptidomimetic 26 (peptide)
chain: DINNN
modifications: bridge (positions not given here) via ortho ether aromatic unit (VIII); reading uncertain; also: cyclized via ortho ether aromatic unit (VIII), attachment points not given here
Kd (SPSB2): 175 nM

B3: PepNat D1-major (peptide)
chain: [NMeF]DINNNKG-NH2
modifications: bridge (positions not given here) via N‑methyl fused di‑pyrrolidine (I); reading uncertain; also: macrocycle via N-methyl fused di-pyrrolidine (I)
Kd (SPSB2): 33 nM

B4: macrocycle 27 (peptide)
chain: [NMeF]DINNNK
modifications: linker (positions not given here) via phenylmethanamine linker (IX); reading uncertain; also: cyclized via phenylmethanamine linker (IX), attachment points not given here
Kd (SPSB2): 87 nM

B5: PepNat D13-major (peptide)
chain: [NMeV]DINNNKG-NH2
modifications: bridge (positions not given here) via N‑methyl fused di‑pyrrolidine (I); reading uncertain; also: macrocycle via N-methyl fused di-pyrrolidine (I)
Kd (SPSB2): 15 nM

B6: PepNat D4-major (peptide)
chain: [NMeF]DINNNKG-NH2
modifications: bridge (positions not given here) via pyrrolidine (IV); reading uncertain; also: macrocycle via pyrrolidine (IV)
Kd (SPSB2): 18 nM

B7: PepNat D7-major (peptide)
chain: [NMeF]DINNNKG-NH2
modifications: bridge (positions not given here) via pyrrolidinyl‑spirobarbiturate (VII); reading uncertain; also: macrocycle via pyrrolidinyl-spirobarbiturate (VII)
Kd (SPSB2): 3.8 nM

Ac-DINNN [iNOS peptide 23]
Kd (SPSB2): 237 nM

Ac-KEEKDINNNVKKT [iNOS peptide 22]
Kd (SPSB2): 7.1 nM

B8: PepNat D12-major (peptide)
chain: [NMeL]DINNNKG-NH2
modifications: bridge (positions not given here) via N‑methyl fused di‑pyrrolidine (I); reading uncertain; also: macrocycle via N-methyl fused di-pyrrolidine (I)
Kd (SPSB2): 10 nM

B9: PepNat D3-major (peptide)
chain: [NMeF]DINNNKG-NH2
modifications: bridge (positions not given here) via NP‑inspired fragment III; reading uncertain; also: macrocycle via NP-inspired fragment III
Kd (SPSB2): 309 nM

B10: PepNat D13-minor (peptide)
chain: [NMeV]DINNNKG-NH2
modifications: bridge (positions not given here) via N‑methyl fused di‑pyrrolidine (I); reading uncertain; also: macrocycle via N-methyl fused di-pyrrolidine (I), minor diastereomer
Kd (SPSB2): 78 nM

VDINNNKG (macrocycle via N-phenyl fused di-pyrrolidine (II), N-Me-Val) [PepNat D18-major]
Kd (SPSB2): 2.2 nM

VDINNNKG (macrocycle via N-phenyl fused di-pyrrolidine (II) minor diastereomer, N-Me-Val) [PepNat D18-minor]
Kd (SPSB2): 139 nM

B11: PepNat D2-major (peptide)
chain: [NMeF]DINNNKG-NH2
modifications: bridge (positions not given here) via N‑phenyl fused di‑pyrrolidine (II); reading uncertain; also: macrocycle via N-phenyl fused di-pyrrolidine (II)
Kd (SPSB2): 231 nM
